Measured values published in publication PMC6151802, “A New Series of Cytotoxic Pyrazoline Derivatives as Potential Anticancer Agents that Induce Cell Cycle Arrest and Apoptosis” (Molecules : A Journal of Synthetic Chemistry and Natural …, 2017).

How the values were obtained:
[1] = system: Hela human cervical carcinoma cell line; experiment: MTT antiproliferative assay, Hela; assay type: cell-based; conditions: 48 h treatment
Description: (§1) The antiproliferative activity of 1b–12b against three human cancer cell lines (include HepG-2 human hepatoma cell line, Hela human cervical carcinoma cell line and A549 human lung adenocarcinoma cell line) and NIH/3T3 mouse embryonic fibroblast cells were evaluated by the MTT assay (Table 2). […] For Hela cells, the antiproliferative activity of some of the derivatives were similar to that of cis-DDP. […] We selected compound 1b and cis-DDP to generate growth-inhibitory curves (Figure 1) against HepG-2 cells and Hela cells.
(§2) A MTT assay was developed to monitor mammalian cell survival and proliferation in vitro [29]. HepG-2 cells, Hela and A549 cells from the China Center for Type Culture Collection (CCTCC, Wuhan, China) were cultivated in RPMI-1640 medium supplemented with 10% fetal bovine serum (ν/ν), 100 U/mL penicillin, and […] streptomycin. Cells (5 × 10^3 cell/well) at the log phase of their growth cycle were added to each well of a 96-well plate and incubated for 24 h at 37 °C in a humidified atmosphere of 5% CO2. Then, cells were treated with or without test compounds at different concentrations. After 48 h, 5 mg/mL MTT solution (20 μL per well) was added. Cells were incubated at 37 °C. After 4 h, the MTT solution was removed and DMSO was added to each well (150 μL). Eight to twelve minutes later, the optical density (OD) values were measured at room temperature at a wavelength of 595 nm on a FilterMax F3/F5 Microplate Reader (Molecular Devices, Sydney, Australia). In this experiment, 5 mg/mL of cisplatin was used as the positive control and 0.1% DMSO was used as the negative reference. Each assay was carried out at least three times.

[2] = system: HepG-2 cells; experiment: Flow cytometric analysis of cell cycle distribution (PI); assay type: cell-based, human; conditions: 24 h, control 9.97%
Text: Cell cycle arrest is an important sign for inhibition of proliferation and the series of events that take place in a cell leading to its division and replication. […] Compound 1b was chosen for intensive mechanism study on HepG-2 cells because of its highest selectivity index (SI) value of 14.5. After the inhibitory effect of 1b on cell proliferation was observed, we next assessed the effect on the cell cycle distribution of HepG-2 cells by flow cytometry (Figure 3). […] This represented a remarkable difference from 9.97% in the control group (p < 0.05). These findings confirmed that compound 1b could influence HepG-2 cell cycle progression at low micromolar concentrations in a dose-dependent manner.
For flow cytometric analysis of the DNA content, HepG-2 cells (2.0 × 10^5 cells/well) in exponential growth were plated in 6-well plates and incubated for 24 h and then incubated with different concentrations (2.5, 5 and 10 μmol/L) of compound 1b at 37 °C for 24 h. After 24 h treatment, cells were collected, centrifuged, and fixed with ice-cold ethanol (70%) overnight 4 °C. The cells were washed twice with PBS and then treated with lysis buffer containing RNase A (Sigma, St. Louis, MO, USA), which was kept in a lukewarm bath at 37 °C, for 30 min, sequentially, and stained with PI and kept in the dark for 30 min [30]. Then, the samples were analyzed by a flow cytometer (FACSCalibur, BD Accuri^TM C6 BD Instruments Inc., New York, NY, USA). Each experiment was performed in triplicate. DNA histograms were analyzed using Mod Fit (version 3.2) for Windows (Verity Software House, New York, NY, USA).

[3] = system: A549 human lung adenocarcinoma cell line; experiment: MTT antiproliferative assay, A549; assay type: cell-based; conditions: 48 h treatment
Description: as §1, §2

[4] = system: NIH/3T3 mouse embryonic fibroblast cells; experiment: MTT cytotoxicity assay, NIH/3T3 normal cells; assay type: cell-based; conditions: 48 h treatment, read-out: IC50 NIH/3T3 Cell Line
Description: as §1, §2

[5] = system: HepG-2 cells; experiment: Plate colony formation (clonogenic survival) assay; assay type: cell-based, human; conditions: different concentrations of 1b
Description: To assess the antiproliferative effect of compound 1b (Figure 2), we analyzed clonogenicity of HepG-2 cells after the treatment with 1b for 48 h.
Additionally, we used plate colony formation assay to evaluate the colony formation ability of HepG-2 cells. The cells were seeded in the complete medium in 6-well plate at 600 cells per well. After attachment, cells were exposed to different concentrations of compound 1b. After 7 days, the cells were fixed with paraformaldehyde for 20 min and stained with 1% crystal violet solution for 30 min to observe colonies.

[6] = system: HepG-2 cells; experiment: Cellular apoptosis by Annexin V-FITC/PI flow cytometry; assay type: cell-based, human; conditions: 24 h; for total percentage of apoptotic cells (early and late, Q2 + Q3): vehicle 2.921%
Description: To examine the potency of the cancer cell apoptosis effect of 1b on HepG-2 cells, the number of apoptotic cells was monitored using flow cytometry. […] The total percentage of apoptotic cells (early and late, Q2 + Q3) was 2.921% when treated with vehicle alone.
HepG-2 cells (2.0 × 10^5 cells/well) were plated in a 6-well plate and allowed to adhere. After 24 h, the medium was replaced with fresh culture medium containing compound 1b at final concentrations of 2.5, 5, and 10 μmol/L at 37 °C. After 24 h, the cells were harvested and staining solution was added (containing 5 μL Annexin V-FITC and 5 μL PI). The cells were then incubated for 15 min at 20–25 °C in the dark. The samples were then detected in a FACScalibur BD Accuri^TM C6 flow cytometer. Analyses were performed by the software supplied with the instrument.

[7] = system: HepG-2 human hepatoma cell line; experiment: MTT antiproliferative assay, HepG-2; assay type: cell-based; conditions: for IC50: MTT, 48 h treatment; for SI (selectivity index): SI = IC50, NIH/3T3/IC50, HepG-2
Description: as §1, §2

[8] = system: HepG-2 cells; experiment: Western blot analysis of apoptosis-related proteins; assay type: cell-based, human; conditions: 2.5, 5 and 10 μM, 24 h
Description: To explore the mechanisms underlying apoptosis of compound 1b in HepG-2 cells, the characteristics of apoptosis including p53, caspase 3 and PARP cleavage were examined. […] The features of apoptosis appeared to occur in a dose-dependent manner. Furthermore, we measured the effect of 1b on expression of anti-apoptotic protein Bcl-2 and pro-apoptotic protein Bax in HepG-2 cells.
HepG-2 cells (1.0 × 10^6 cells/well) were seeded in six-well plates. After treatment with compound 1b for 24 h, the preparation of total protein samples from the culture cells for immunoblotting was carried out as previously described. For gel electrophoresis (Novex® NuPAGE® SDS-PAG, Thermo, Waltham, MA, USA), 30–50 μg of protein was used per well. Then the proteins were separated by SDS-PAGE and electroblotted to nitrocellulose membrane. The membrane was incubated with the following indicated antibody: Bcl-2, Bax, caspase-3, p53, PARP and β-actin (Cell Signaling Technology, Beverly, MA, USA) for 12 h at 4 °C. The antibodies were used in […] 5% BSA-TBS-T. The blots were washed four times and then incubated with horseradish peroxidase-conjugated secondary antibody (Santa Cruz Biotechnology Laboratories. Santa Cruz, CA, USA) for 1.5 h at room temperature. β-Actin antibody was used for equal loading.

## COc1cc(C2CC(c3ccc(F)cc3)=NN2C(N)=S)cc(OC)c1OC (stereo not drawn) [1b]
[1]
  IC50: 7.63 ± 1.35 µM
[2]; 2.5 μmol/L
  percentage of cells at the G2/M phase: 25.06%
[2]; 5 μmol/L
  percentage of cells at the G2/M phase: 56.15%
[2]; 10 μmol/L
  percentage of cells at the G2/M phase: 71.25%
[3]
  IC50: > 100 µM
[4]
  IC50: > 100 µM
[5]
  clonogenicity / plate colony formation of HepG-2 cells: significantly reduced cell viability in a dose-dependent fashion
[6]; 2.5 μmol/L
  fold percentage of apoptotic cells in comparison with the control group: 1.33 fold
  total percentage of apoptotic cells (early and late, Q2 + Q3): 3.889%
[6]; 5 μmol/L
  fold percentage of apoptotic cells in comparison with the control group: 2.26 fold
  total percentage of apoptotic cells (early and late, Q2 + Q3): 6.581%
[6]; 10 μmol/L
  fold percentage of apoptotic cells in comparison with the control group: 3.53 fold
  total percentage of apoptotic cells (early and late, Q2 + Q3): 10.309%
[7]
  IC50: 6.78 ± 1.44 µM
  SI (selectivity index): >14.75
[8]
  PARP cleavage: PARP was cleaved into fragmentation of 89 kDa
  expression of anti-apoptotic protein Bcl-2: decrease in expression
  expression of pro-apoptotic protein Bax: increase in expression
  level of cleaved caspase-3: dramatically increased
  level of p53: dramatically increased

## CCOc1cc(C2CC(c3ccccc3O)=NN2C(N)=S)cc(Br)c1O (stereo not drawn) [9b, 3-(2-Hydroxyphenyl)-5-(3-ethyoxyl-4-hydroxy-5-bromothiophenyl)-4,5-dihydro-1H-pyrazole-1-carbothioamide]
[1]
  IC50: 7.74 ± 1.63 µM
[3]
  IC50: > 100 µM
[4]
  IC50: > 100 µM
[7]
  IC50: 32.2 ± 2.83 µM
  SI (selectivity index): >3.10

## N.N.[Cl][Pt][Cl] [cis-DDP, cisplatin, reference compound]
[1]
  IC50: 5.28 ± 0.66 µM
[3]
  IC50: 29.5 ± 3.3 µM
[4]
  IC50: 4.88 ± 1.93 µM
[7]
  IC50: 7.57 ± 0.98 µM
  SI (selectivity index): 0.64
